In PubChem BioAssay (NCI):
“And” between values parts separate entries of the source, which are not always exact repeats. Equal values may be shown once.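 Compound exposure: 48 hours, 5 concentrations, 96-well plates. GI50 = concentration required for 50% inhibition of growth. Definition used: TGI = concentration required for complete inhibition of growth.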

Key:
Assay in all cases: growth of human tumour cells (NCI), 48 h
MDA-MB-435 = system: MDA-MB-435
BT-549 breast = system: BT-549 breast
MDA-N = system: MDA-N
DLD-1 colon = system: DLD-1 colon
LXFL 529 NSCLC = system: LXFL 529 NSCLC
DMS 273 small cell lung = system: DMS 273 small cell lung
DMS 114 small cell lung = system: DMS 114 small cell lung
XF 498 CNS = system: XF 498 CNS
RXF-631 renal = system: RXF-631 renal

Row | SMILES | GI50 (MDA-MB-435) | TGI (MDA-MB-435) | GI50 (BT-549 breast) | TGI (BT-549 breast) | also measured
1 | CC(=O)OCC1OC(n2ccc(=O)[nH]c2=O)C(OC(C)=O)C1OC(C)=O (stereo not given) | > 100 µM | > 100 µM | > 100 µM | > 100 µM | 
2 | CCc1cc(O)c(Cl)c(C)c1Cl |  | 30.1 µM |  | 36 µM | TGI (MDA-N): 29.9 µM
3 | C[C@@H]1COCCN1c1cc(C2(S(C)(=N)=O)CC2)nc(-c2ccnc3[nH]ccc23)n1 (stereo not given in full) | 3.74 µM | 21.8 µM |  |  | 
4 | CO/N=C(\C)c1ccc(Nc2cc(-c3ccccc3)nc3c(O)cccc23)cc1 | 15.5 µM | 30.9 µM | 15.5 µM | 32.7 µM | 
5 | CC(=O)[O-].CC(=O)[O-].[NH2-].[Pt+2].c1ccc2cnccc2c1 | > 100 µM | > 100 µM |  |  | 
6 | CC(CNC(Cc1ccccc1)c1ccccc1)NC(Cc1ccccc1)c1ccccc1 (stereo not given) | 2.1 µM | 4.99 µM | 2.01 µM | 5.16 µM | 
7 | COc1cc([C@@H]2c3cc4c(cc3[C@@H](NC(=O)c3ccccc3)C3COC(=O)[C@@H]32)OCO4)cc(OC)c1O (stereo not given in full) |  |  |  |  | TGI (DLD-1 colon): > 100 µM; TGI (LXFL 529 NSCLC): > 100 µM; TGI (DMS 273 small cell lung): 13.7 µM; TGI (DMS 114 small cell lung): 21.4 µM
8 | CC1OC2CC(=O)OC2C2=C1C(=O)c1c(O)c3c(c(O)c1C2=O)C1CC(O)C3(O)C(C)O1 (stereo not given) | 0.264 µM | 0.591 µM | 1.1 µM | 2.32 µM | 
9 | O=C(CSC(=S)N1CCOCC1)Nc1nc2c(s1)CCCC2 |  |  |  |  | TGI (DLD-1 colon): > 100 µM; TGI (LXFL 529 NSCLC): > 100 µM; TGI (DMS 273 small cell lung): > 100 µM; TGI (DMS 114 small cell lung): > 100 µM; TGI (XF 498 CNS): > 100 µM
10 | O=C1/C(=C/c2ccc(O)cc2)COc2ccc(-c3ccccc3)cc21 | 4.23 µM | 35.8 µM | 2.64 µM | 13 µM | 
11 | O=C(CCl)N1c2ccccc2Sc2c1ccc1ccccc21 | 2.41 µM | 7.06 µM | 1.3 µM | 2.63 µM | 
12 | CN(C)c1ccc2cc(-c3ccccc3F)c(N)nc2c1 | 0.288 µM | 10.3 µM | 2.57 µM | 10.6 µM | 
13 | NNC(=O)CCC(=O)NC1C2CC3CC(C2)CC1C3 (stereo not given) |  |  |  |  | TGI (DLD-1 colon): > 100 µM; TGI (LXFL 529 NSCLC): > 100 µM; TGI (DMS 273 small cell lung): > 100 µM; TGI (DMS 114 small cell lung): > 100 µM
14 | CN(CCOc1ccc(C#N)cc1)CCOc1ccc(C#N)cc1 | 78.8 µM | > 100 µM | 20.5 µM | > 100 µM | 
15 | COc1ccc(-c2cn(-c3ccccc3)c(-c3ccccc3)n2)cc1OC | 2.94 µM | 12.5 µM | 2.86 µM | 18.5 µM | 
16 | COc1cc(/C=C/C(=O)c2sc(Nc3ccccc3)nc2C)ccc1O |  |  |  |  | TGI (DLD-1 colon): > 100 µM; TGI (DMS 273 small cell lung): > 100 µM; TGI (DMS 114 small cell lung): > 100 µM
17 | COc1ccc(O)c(C#N)c1C#N |  |  |  |  | TGI (LXFL 529 NSCLC): > 100 µM; TGI (DMS 273 small cell lung): > 100 µM; TGI (XF 498 CNS): > 100 µM
18 | CC[C@H](CC#N)OC(=O)N[C@@H](C)c1cccc(NC(=O)Nc2ccc(-c3cnco3)c(OC)c2)c1 | 0.0498 µM | 29 µM | 0.238 µM | 34 µM | 
19 | CC(=O)n1c2ccccc2c2nc3nc(Oc4ccc(C)cc4)c4ccccc4c3cc21 |  |  |  |  | TGI (DLD-1 colon): > 100 µM; TGI (LXFL 529 NSCLC): > 100 µM; TGI (DMS 273 small cell lung): > 100 µM; TGI (DMS 114 small cell lung): > 100 µM

Row | SMILES | GI50 (MDA-MB-435) | TGI (MDA-MB-435) | GI50 (BT-549 breast) | TGI (BT-549 breast) | also measured
20 | Clc1nc(Cl)c2ncn(Cc3ccc(COc4cccc(OCc5ccc(Cn6cnc7c(Cl)nc(Cl)nc76)cc5)c4)cc3)c2n1 | 26.7 µM | > 100 µM | 25.6 µM | > 100 µM | 
21 | Cc1ccc(C(O)c2cnc(C)n2Cc2ccccc2)cc1 (stereo not given) |  | > 100 µM |  | > 100 µM | TGI (MDA-N): > 100 µM
22 | O=C(O)c1cc(=O)c2[nH]c3ccccc3c2s1 |  |  |  |  | TGI (DLD-1 colon): > 100 µM; TGI (RXF-631 renal): > 100 µM; TGI (LXFL 529 NSCLC): > 100 µM; TGI (DMS 114 small cell lung): > 100 µM; TGI (XF 498 CNS): > 100 µM
23 | CC(C)NC(=O)OCCS(=O)c1c(Cl)c(Cl)nn1C (stereo not given) |  | 56.3 µM |  |  | TGI (MDA-N): > 100 µM
24 | CN(C)CCOc1ccc2c(c1)C/C(=C/c1ncc([N+](=O)[O-])n1C)C2=O |  | 11.5 µM |  | 3.74 µM | TGI (MDA-N): 16.8 µM
25 | Cc1cc(C(C#N)c2ccc(Cl)cc2)c(Cl)cc1NC(=O)c1cc(I)cc(I)c1O (stereo not given) | 12 µM and 18.8 µM | 31.6 µM and 42 µM | 4.03 µM and 8.64 µM | 11.8 µM and 23.4 µM | 
26 | CCCCn1cnc2c(SC)ncnc21 |  | > 100 µM |  | > 100 µM | TGI (MDA-N): > 100 µM
27 | Cc1nc2sc(C(=O)Nc3ccccc3)c(N)c2cc1C(=O)/C=C/c1ccccc1 | 1.54 µM | 3.73 µM | 1.71 µM | 3.63 µM | 
28 | COc1ccc2c(c1)OC(N(C(C)=O)C(C)=O)=C(C#N)C2c1ccc(F)cc1 (stereo not given) |  |  | 2.22 µM | 40.2 µM | 
29 | NC(C(=O)[O-])C(=O)[O-].NC1CCCCC1N.[Pt+4] | 4.04 µM | > 100 µM | > 100 µM | > 100 µM | GI50 (MDA-N): 7.47 µM; TGI (MDA-N): > 100 µM
30 | CC(=O)Nc1ccc2c(c1)oc(=O)c1cc(NC(C)=O)ccc12 | > 100 µM | > 100 µM | > 100 µM | > 100 µM | 
31 | Oc1ccc(CCCCCCc2ccc(O)cc2)cc1 | 11.8 µM | 26.9 µM | 2.94 µM | 18.7 µM | 
32 | C[C@@H]1CN(CC(=O)N2CC(C)(C)c3nc(CO)c(Cc4ccc(F)cc4)cc32)[C@@H](CN2CCOC[C@H]2C)CN1 | 37.1 µM | > 100 µM | 0.162 µM | > 100 µM | 
33 | CC(=O)O[C@@H]1CC2C(C)(C)CCCC2(C)C2=C1C(=O)C(C(C)C)=CC2=O (stereo not given in full) | 0.481 µM | 1.93 µM | 0.621 µM | 3.05 µM | 
34 | COc1cccc(C2c3cc4c(cc3OC(O)(CO)C2C(=O)O)OCO4)c1 (stereo not given) (tested in a mixture with another compound) |  |  |  |  | TGI (DLD-1 colon): > 100 µM; TGI (RXF-631 renal): > 100 µM; TGI (LXFL 529 NSCLC): > 100 µM; TGI (DMS 273 small cell lung): > 100 µM; TGI (DMS 114 small cell lung): > 100 µM
35 | c1cnc2[nH]cc(-c3csc(-c4cn(CCCCN5CCOCC5)c5ccccc45)n3)c2c1 | 1.72 µM | 3.2 µM | 2.13 µM | 5.19 µM | 
36 | CC(C)CC1=[N+]=C(NC#N)N=C(CCC(=O)Nc2ccccc2[N+](=O)[O-])C1 |  |  |  |  | TGI (DLD-1 colon): > 100 µM; TGI (LXFL 529 NSCLC): > 100 µM; TGI (DMS 114 small cell lung): > 100 µM; TGI (XF 498 CNS): > 100 µM
37 | CCCCCCCCCCCCCC(=O)CBr |  | 32 µM |  | 22.6 µM | TGI (DLD-1 colon): 34.3 µM; TGI (RXF-631 renal): 33.7 µM; TGI (LXFL 529 NSCLC): 9.13 µM; TGI (MDA-N): 25 µM; TGI (DMS 114 small cell lung): 9.3 µM
38 | Nc1nc2c(c(=O)[nH]1)CN(c1ccc(S(N)(=O)=O)cc1)CN2 |  | > 100 µM |  | > 100 µM | TGI (MDA-N): > 100 µM
